According to article PMC11372264, “^61Cu-PSMA–Targeted PET for Prostate Cancer: From Radiotracer Development to First-in-Human Imaging” (Journal of Nuclear Medicine, 2024):

System: LNCaP xenografts
Test: Biodistribution in LNCaP xenografts
Assay type: in vivo, mice
Method: All animal experiments were conducted in accordance with Swiss animal welfare laws and regulations under license number 30515 granted by the Veterinary Office, Department of Health, Canton Basel-Stadt, Switzerland. Male athymic nude-Foxn1^nu/Foxn1^+ mice (Envigo), 4–6 wk old, were inoculated subcutaneously on the shoulder with 10^7 LNCaP cells, freshly suspended in a 1:1 ratio of sterile minimum essential medium with basal medium Eagle and Matrigel. The tumors were allowed to grow to a volume of approximately 200 mm^3.
The biodistribution of [^61Cu]Cu-DOTAGA-PSMA-I&T and [^61Cu]Cu-NODAGA-PSMA-I&T (100 µL/200 pmol/2–3 MBq) was compared with that of [^68Ga]Ga-DOTAGA-PSMA-I&T, [^68Ga]Ga-NODAGA-PSMA-I&T, and [^68Ga]Ga-PSMA-11 (100 µL/200 pmol/3–5 MBq), as well as [^18F]PSMA-1007 (100 µL/70 pmol/15 MBq). This comparison was conducted at 1 h after injection for all radiotracers and at 4 h after injection for the ^61Cu-labeled tracers and [^18F]PSMA-1007. The specificity of the ^61Cu-labeled tracers was assessed at 1 h after injection by blocking studies with 2-(phosphonomethyl)pentanedioic acid (100 µL/1.3 µmol) being injected 3–5 min before the injection of the radiotracer.

[1] = 1 h after injection, blocking with 2-(phosphonomethyl)pentanedioic acid 1.3 µmol

`O=C([O-])CN1CCN(CC(=O)[O-])CCN(C(CCC(=O)N[C@H](Cc2ccc(O)c(I)c2)C(=O)N[C@H](Cc2ccccc2)C(=O)N[C@H](CCCCNC(=O)CCCCCCC(=O)NCCCC[C@H](NC(=O)N[C@@H](CCC(=O)O)C(=O)O)C(=O)O)C(=O)O)C(=O)O)CC1.[61Cu+2]` (stereo partly drawn) [[^61Cu]Cu-NODAGA-PSMA-I&T, NODAGA-(l-y)fk(sub-KuE)] was tested, and the “Biodistribution, Adrenals” value (1 h after injection) was 17.3 ± 3.26 %IA/g, the “Biodistribution, Blood” value (1 h after injection) was 0.28 ± 0.06 %IA/g and the “Biodistribution, Femur” value (1 h after injection) was 2.73 ± 0.91 %IA/g. For the same compound, the “Biodistribution, Heart” value (1 h after injection) was 0.45 ± 0.15 %IA/g, the “Biodistribution, Intestine” value (1 h after injection) was 2.11 ± 0.78 %IA/g and the “Biodistribution, Kidneys” value (1 h after injection) was 118 ± 13 %IA/g. The “Biodistribution, Liver” value (1 h after injection) was 1.02 ± 0.28 %IA/g, the “Biodistribution, Lung” value (1 h after injection) was 1.69 ± 0.45 %IA/g and the “Biodistribution, Muscles” value (1 h after injection) was 1.12 ± 0.32 %IA/g. The “Biodistribution, Pancreas” value (1 h after injection) was 0.97 ± 0.36 %IA/g, the “Biodistribution, Salivary glands” value (1 h after injection) was 2.01 ± 0.33 %IA/g and the “Biodistribution, Spleen” value (1 h after injection) was 6.04 ± 1.87 %IA/g. For the same compound, the “Biodistribution, Stomach” value (1 h after injection) was 1.13 ± 0.20 %IA/g, the “Biodistribution, Tumor (tumor uptake)” value (1 h after injection) was 14.0 ± 5.0 %IA/g and the Tumor-to-Adrenals ratio (1 h after injection) was 0.92 ± 0.20. For the same compound, the Tumor-to-Blood ratio (1 h after injection) was 55.8 ± 20.0, the Tumor-to-Intestine ratio (1 h after injection) was 7.87 ± 2.93 and the Tumor-to-Kidneys ratio (1 h after injection) was 0.13 ± 0.03. The Tumor-to-Liver ratio (1 h after injection) was 14.9 ± 4.9, the Tumor-to-Muscles ratio (1 h after injection) was 13.6 ± 3.75 and the Tumor-to-Salivary glands ratio (1 h after injection) was 7.83 ± 3.16. The Tumor-to-Spleen ratio (1 h after injection) was 2.86 ± 1.37, the “Biodistribution, Adrenals” value [1] was 0.95 ± 0.16 %IA/g and the “Biodistribution, Blood” value [1] was 0.19 ± 0.01 %IA/g. For the same compound, the “Biodistribution, Femur” value [1] was 0.39 ± 0.24 %IA/g, the “Biodistribution, Heart” value [1] was 0.33 ± 0.03 %IA/g and the “Biodistribution, Intestine” value [1] was 0.87 ± 0.10 %IA/g. For the same compound, the “Biodistribution, Kidneys” value [1] was 4.59 ± 0.35 %IA/g, the “Biodistribution, Liver” value [1] was 1.29 ± 0.21 %IA/g and the “Biodistribution, Lung” value [1] was 0.67 ± 0.06 %IA/g. The “Biodistribution, Muscles” value [1] was 0.32 ± 0.06 %IA/g, the “Biodistribution, Pancreas” value [1] was 0.28 ± 0.17 %IA/g and the “Biodistribution, Salivary glands” value [1] was 0.51 ± 0.20 %IA/g. The “Biodistribution, Spleen” value [1] was 0.33 ± 0.08 %IA/g, the “Biodistribution, Stomach” value [1] was 0.62 ± 0.04 %IA/g and the “Biodistribution, Tumor” value [1] was 0.68 ± 0.55 %IA/g. The “Biodistribution, Adrenals” value (4 h after injection) was 8.32 ± 2.87 %IA/g, the “Biodistribution, Blood” value (4 h after injection) was 0.10 ± 0.03 %IA/g and the “Biodistribution, Femur” value (4 h after injection) was 1.34 ± 0.48 %IA/g. The “Biodistribution, Heart” value (4 h after injection) was 0.22 ± 0.05 %IA/g, the “Biodistribution, Intestine” value (4 h after injection) was 1.06 ± 0.50 %IA/g and the “Biodistribution, Kidneys” value (4 h after injection) was 90.9 ± 10.1 %IA/g. For the same compound, the “Biodistribution, Liver” value (4 h after injection) was 0.72 ± 0.11 %IA/g, the “Biodistribution, Lung” value (4 h after injection) was 0.74 ± 0.19 %IA/g and the “Biodistribution, Muscles” value (4 h after injection) was 0.50 ± 0.22 %IA/g. The “Biodistribution, Pancreas” value (4 h after injection) was 0.45 ± 0.09 %IA/g, the “Biodistribution, Salivary glands” value (4 h after injection) was 0.52 ± 0.06 %IA/g and the “Biodistribution, Spleen” value (4 h after injection) was 1.28 ± 0.39 %IA/g. For the same compound, the “Biodistribution, Stomach” value (4 h after injection) was 0.66 ± 0.15 %IA/g, the “Biodistribution, Tumor (tumor uptake)” value (4 h after injection) was 10.7 ± 3.3 %IA/g and the Tumor-to-Adrenals ratio (4 h after injection) was 1.44 ± 0.65. It also gave a Tumor-to-Blood ratio (4 h after injection) of 109 ± 43, a Tumor-to-Intestine ratio (4 h after injection) of 12.5 ± 6.7 and a Tumor-to-Kidneys ratio (4 h after injection) of 0.12 ± 0.03. It also gave a Tumor-to-Liver ratio (4 h after injection) of 15.4 ± 5.7, a Tumor-to-Muscles ratio (4 h after injection) of 25.4 ± 12.0 and a Tumor-to-Salivary glands ratio (4 h after injection) of 19.5 ± 7.1. The Tumor-to-Spleen ratio (4 h after injection) was 9.16 ± 3.84.
